Data taken from ChEMBL document CHEMBL1201862, “PubChem BioAssay data set” (2004).
Active and inactive are the calls of the source.

Experiments:
[1] = biological target: T1, Short transient receptor potential channel 4 (Mus musculus, UniProt Q9QUQ5); assay: block of DAMGO-driven TRPC4 calcium entry – cell-based, HEK293 TRPC4/mu-opioid, Fluo-4 calcium, dose response (AID 434942); format: functional;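 note: potency of inhibitors blocking the TRPC4 calcium response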
T1 sequence (Q9QUQ5 whole entry): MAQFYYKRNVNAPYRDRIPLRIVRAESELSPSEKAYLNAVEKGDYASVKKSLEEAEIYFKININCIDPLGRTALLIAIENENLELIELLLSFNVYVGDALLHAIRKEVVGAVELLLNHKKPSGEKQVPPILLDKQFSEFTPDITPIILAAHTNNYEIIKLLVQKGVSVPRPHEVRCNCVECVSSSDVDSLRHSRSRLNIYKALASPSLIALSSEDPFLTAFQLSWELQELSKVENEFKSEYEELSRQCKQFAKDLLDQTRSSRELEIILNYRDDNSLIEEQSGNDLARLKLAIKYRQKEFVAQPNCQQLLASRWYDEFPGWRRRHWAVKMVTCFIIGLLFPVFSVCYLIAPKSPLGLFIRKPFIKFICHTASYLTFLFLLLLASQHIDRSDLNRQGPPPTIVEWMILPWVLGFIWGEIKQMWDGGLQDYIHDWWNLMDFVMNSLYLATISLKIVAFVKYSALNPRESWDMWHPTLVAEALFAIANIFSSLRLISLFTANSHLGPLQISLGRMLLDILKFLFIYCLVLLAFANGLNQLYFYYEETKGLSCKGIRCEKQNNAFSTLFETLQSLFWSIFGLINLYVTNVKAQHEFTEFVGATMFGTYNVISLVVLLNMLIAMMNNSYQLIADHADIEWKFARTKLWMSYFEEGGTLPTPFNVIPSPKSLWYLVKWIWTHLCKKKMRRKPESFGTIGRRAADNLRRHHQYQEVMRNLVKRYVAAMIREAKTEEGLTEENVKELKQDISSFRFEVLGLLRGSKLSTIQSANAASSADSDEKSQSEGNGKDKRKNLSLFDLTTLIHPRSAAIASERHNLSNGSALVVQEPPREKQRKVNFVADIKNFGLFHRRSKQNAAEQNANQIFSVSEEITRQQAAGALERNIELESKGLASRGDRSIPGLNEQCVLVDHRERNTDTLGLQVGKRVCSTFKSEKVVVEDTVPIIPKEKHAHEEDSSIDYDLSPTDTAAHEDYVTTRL

[2] = biological target: 26S proteasome non-ATPase regulatory subunit 14 (Homo sapiens, UniProt O00487); assay: inhibition of proteasome subunit RPN11 – biochemical, fluorescence polarization, uHTS hits, confirmation (AID 602368); format: functional
[3] = biological target: 72 kDa type IV collagenase (Homo sapiens, UniProt P08253); assay: Dose Response validation of uHTS RPN11 inhibitor hits using a MMP-2 Fluorescence assay.; format: functional
[4] = biological target: Prothrombin (Bos taurus, UniProt P00735); assay: thrombin protease inhibitors – biochemical, fluorescence polarization, uHTS hits, dose response (AID 602369); format: functional
[5] = tested on: CHO-K1; assay: (§1) Counterscreen for antagonists of the orexin 1 receptor (OX1R; HCRTR1): Homogeneous time resolved fluorescence (HTRF)-based cell-based dose response assay to identify antagonists of the parental CHO-K1 cell line. [Related pubchem assays (depositor defined):AID434989, AID435008, AID463079, AID485270, AID492963, AID492964, AID492965, AID493232, AID504699, AID504701]; format: functional; settings: Cricetulus griseus
[6] = as §1, with “Fluorescence-based” for “Homogeneous time resolved fluorescence (HTRF)-based”, “cell-based high throughput” for “cell-based”, “CHO” for “CHO-K1”; format: functional
[7] = biological target: T2, Orexin/Hypocretin receptor type 1 (Homo sapiens, UniProt O43613); assay: Homogeneous Time Resolved Fluorescence (HTRF)-based cell-based high throughput dose response assay for antagonists of the orexin 1 receptor (OX1R; HCRTR1). [Related pubchem assays (depositor defined):AID434989, AID435008, AID463079, AID485270, AID492963, AID492964, AID492965, AID493232, AID504717, AID504718]; format: functional
T2 sequence (O43613 whole entry): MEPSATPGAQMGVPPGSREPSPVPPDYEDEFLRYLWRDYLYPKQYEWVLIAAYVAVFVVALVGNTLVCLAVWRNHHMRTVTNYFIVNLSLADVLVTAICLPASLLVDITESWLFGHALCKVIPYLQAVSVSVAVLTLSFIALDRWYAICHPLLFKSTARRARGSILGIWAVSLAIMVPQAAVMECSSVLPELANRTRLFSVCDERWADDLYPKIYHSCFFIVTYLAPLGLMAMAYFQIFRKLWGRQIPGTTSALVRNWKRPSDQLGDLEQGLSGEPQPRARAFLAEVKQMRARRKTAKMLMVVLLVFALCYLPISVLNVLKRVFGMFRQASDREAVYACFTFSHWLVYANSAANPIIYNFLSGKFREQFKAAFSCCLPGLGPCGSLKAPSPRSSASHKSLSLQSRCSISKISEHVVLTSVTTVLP

[8] = biological target: T2, Orexin/Hypocretin receptor type 1; assay: Fluorescence-based cell-based high throughput dose response assay for antagonists of the orexin 1 receptor (OX1R; HCRTR1). [Related pubchem assays (depositor defined):AID434989, AID435008, AID463079, AID485270, AID492963, AID492964, AID492965, AID493232, AID504717, AID504718]; format: functional
[9] = biological target: T3, Orexin receptor type 2 (Homo sapiens, UniProt O43614); assay: Counterscreen assay for antagonists of the orexin 1 receptor (OX1R; HCRTR1): Fluorescence-based cell-based dose response assay for antagonists of the orexin 2 receptor (OX2R; HCRTR2), run by assay provider.; format: functional
T3 sequence (O43614 whole entry): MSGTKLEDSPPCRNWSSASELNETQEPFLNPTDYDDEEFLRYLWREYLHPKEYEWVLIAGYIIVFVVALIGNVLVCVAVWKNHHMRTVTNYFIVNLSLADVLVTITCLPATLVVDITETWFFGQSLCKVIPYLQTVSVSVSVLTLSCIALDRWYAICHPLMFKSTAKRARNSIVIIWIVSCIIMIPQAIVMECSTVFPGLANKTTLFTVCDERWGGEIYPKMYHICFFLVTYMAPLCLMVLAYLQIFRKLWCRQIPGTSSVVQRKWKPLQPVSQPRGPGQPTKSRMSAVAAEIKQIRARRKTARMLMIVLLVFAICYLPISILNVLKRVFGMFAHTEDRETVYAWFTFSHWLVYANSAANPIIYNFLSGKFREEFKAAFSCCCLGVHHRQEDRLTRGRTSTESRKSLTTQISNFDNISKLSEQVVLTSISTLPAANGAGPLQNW

[10] = biological target: T3, Orexin receptor type 2; assay: Counterscreen assay for antagonists of the orexin 1 receptor (OX1R; HCRTR1): Homogeneous Time Resolved Fluorescence (HTRF)-based cell-based dose response assay for antagonists of the orexin 2 receptor (OX2R; HCRTR2), run by assay provider.; format: functional
[11] = decrease of insulin promoter-GFP reporter – imaging, high-content screening, mouse beta cells (AID 1628); format: functional; settings: MIN6
[12] = tested on: BJ; assay: BJ-TERT fibroblast viability loss – cell-based, RAS-independent, luminescence, dose response (AID 1933); format: functional; settings: Homo sapiens
[13] = MIN6 cell viability loss – mouse insulinoma, cytotoxicity control, dose response (AID 2122); format: functional;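 note: confirmatory high-throughput counterscreen run to flag cytotoxic compounds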
[14] = tested on: BJ; assay: cells; format: functional, cell-based; settings: Homo sapiens
[15] = tested on: BJ; assay: BJ-TERT-LT-ST fibroblast viability loss – cell-based, RAS-independent, luminescence, dose response (AID 1935); format: functional; settings: Homo sapiens;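 note: BJ fibroblasts immortalized with TERT plus LT and ST oncogenes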
[16] = DRD fibroblast viability loss – cell-based, non-viral oncogenic, luminescence, dose response (AID 1934); format: functional; settings: Homo sapiens
[17] = THP-1 cell cytotoxicity, dose response, cytotoxicity control for non-replicating M. tuberculosis project (AID 489025); format: functional
[18] = HepG2 cell cytotoxicity, dose response, cytotoxicity control for non-replicating M. tuberculosis project (AID 489018); format: functional; settings: Mycobacterium tuberculosis
[19] = biological target: T4, Ubiquitin-conjugating enzyme E2 N (Homo sapiens, UniProt P61088); format: functional;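 note: Dose-response confirmation in a TR-FRET assay detecting UBC13-driven polyubiquitin chain formation, inhibition measured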
T4 sequence (P61088 whole entry): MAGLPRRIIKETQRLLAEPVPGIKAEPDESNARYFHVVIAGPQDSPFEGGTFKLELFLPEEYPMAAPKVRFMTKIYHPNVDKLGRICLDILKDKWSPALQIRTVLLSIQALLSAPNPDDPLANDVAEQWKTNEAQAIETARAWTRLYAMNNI

[20] = Vero E6 cell cytotoxicity, dose response, cytotoxicity control for non-replicating M. tuberculosis project, secondary assay (AID 492998); format: functional, VeroE6; settings: Vero C1008
[21] = cells; format: functional
[22] = tested on: BJ; assay: growth inhibition of engineered Ras-driven BJ cells – cell-based, alamar blue fluorescence, cherrypicked samples, dose response (AID 2631); format: functional; settings: Homo sapiens;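 note: confirmatory dose-response assay in RAS-dependent BJ fibroblasts engineered with TERT, LT and ST, with cytotoxicity read by fluorescence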
[23] = biological target: T5, High affinity choline transporter 1 (Homo sapiens, UniProt Q9GZV3); assay: human choline transporter potentiators, potency – cell-based, 10-point CRC, membrane potential dye, dose response (AID 602376); format: functional
T5 sequence (Q9GZV3 whole entry): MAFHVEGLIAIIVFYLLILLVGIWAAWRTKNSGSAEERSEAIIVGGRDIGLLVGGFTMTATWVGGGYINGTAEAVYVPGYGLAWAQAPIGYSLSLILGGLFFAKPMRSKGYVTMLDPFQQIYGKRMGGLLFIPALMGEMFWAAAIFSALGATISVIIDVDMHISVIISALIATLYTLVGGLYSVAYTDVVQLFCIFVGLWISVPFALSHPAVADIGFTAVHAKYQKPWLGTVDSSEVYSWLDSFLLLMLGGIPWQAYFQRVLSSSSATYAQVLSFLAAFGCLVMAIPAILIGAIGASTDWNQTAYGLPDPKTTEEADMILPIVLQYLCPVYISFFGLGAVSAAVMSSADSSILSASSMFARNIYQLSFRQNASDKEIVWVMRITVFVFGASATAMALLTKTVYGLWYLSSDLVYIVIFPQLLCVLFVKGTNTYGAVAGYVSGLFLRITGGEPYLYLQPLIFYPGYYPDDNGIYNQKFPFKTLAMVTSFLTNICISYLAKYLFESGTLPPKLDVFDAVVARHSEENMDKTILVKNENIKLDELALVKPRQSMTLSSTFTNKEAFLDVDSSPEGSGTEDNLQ

[24] = Fluorescence-based cell-based high throughput dose response assay for inhibitors of the interaction of nucleotide-binding oligomerization domain containing 2 (NOD2) and the receptor-interacting serine-threonine kinase 2 (RIPK2).; format: functional; settings: Homo sapiens
[25] = biological target: Beta Lactamase (Pseudomonas aeruginosa, UniProt Q932Y6); assay: BLA reporter interference, concentration series – BLA reporter cells, FRET fluorescence, artefact control for NOD2-RIPK2 interaction inhibitor project, dose response (AID 651552); format: functional, cell-based
Chain of Beta Lactamase (Q932Y6 whole entry): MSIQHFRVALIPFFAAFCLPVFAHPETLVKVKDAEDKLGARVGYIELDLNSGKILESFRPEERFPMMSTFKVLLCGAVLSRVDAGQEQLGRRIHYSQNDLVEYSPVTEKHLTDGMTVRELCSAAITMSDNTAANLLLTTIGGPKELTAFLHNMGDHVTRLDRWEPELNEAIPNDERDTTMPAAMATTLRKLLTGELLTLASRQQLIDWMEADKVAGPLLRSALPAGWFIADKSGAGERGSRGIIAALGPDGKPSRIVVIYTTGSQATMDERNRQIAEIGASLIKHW

Chain of 26S proteasome non-ATPase regulatory subunit 14 (O00487 whole entry): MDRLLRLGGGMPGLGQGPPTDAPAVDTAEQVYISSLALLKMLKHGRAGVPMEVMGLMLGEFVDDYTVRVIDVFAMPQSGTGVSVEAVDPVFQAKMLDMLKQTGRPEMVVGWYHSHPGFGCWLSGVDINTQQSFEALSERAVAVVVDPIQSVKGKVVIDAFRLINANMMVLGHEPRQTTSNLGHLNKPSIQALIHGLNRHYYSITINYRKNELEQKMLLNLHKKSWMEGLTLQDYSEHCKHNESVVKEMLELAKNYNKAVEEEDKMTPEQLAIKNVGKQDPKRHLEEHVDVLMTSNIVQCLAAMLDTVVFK
Chain of 72 kDa type IV collagenase (P08253 whole entry): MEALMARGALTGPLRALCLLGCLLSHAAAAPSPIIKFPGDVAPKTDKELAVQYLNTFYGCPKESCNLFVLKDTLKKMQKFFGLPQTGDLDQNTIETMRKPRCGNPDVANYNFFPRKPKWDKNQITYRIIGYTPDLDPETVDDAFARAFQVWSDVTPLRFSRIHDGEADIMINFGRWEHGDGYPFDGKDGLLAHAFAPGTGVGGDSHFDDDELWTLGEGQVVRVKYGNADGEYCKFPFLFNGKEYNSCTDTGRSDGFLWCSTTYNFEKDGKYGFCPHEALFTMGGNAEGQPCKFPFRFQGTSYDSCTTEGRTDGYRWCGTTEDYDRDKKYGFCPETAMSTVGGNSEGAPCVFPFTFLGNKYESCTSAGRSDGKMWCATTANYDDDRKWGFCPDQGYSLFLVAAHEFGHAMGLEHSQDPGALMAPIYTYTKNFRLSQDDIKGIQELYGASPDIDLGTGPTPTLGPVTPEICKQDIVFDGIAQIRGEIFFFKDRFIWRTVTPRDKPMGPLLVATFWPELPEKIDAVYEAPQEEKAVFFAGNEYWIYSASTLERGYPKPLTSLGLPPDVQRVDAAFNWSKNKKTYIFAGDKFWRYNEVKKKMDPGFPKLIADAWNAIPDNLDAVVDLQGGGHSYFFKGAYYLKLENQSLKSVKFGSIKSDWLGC

CC[n+]1c(/C=C/Nc2ccccc2)oc2ccc(OC)cc21
inactive: IC50 [3] > 100 µM
active: EC50 [1] 3.35 µM | IC50 [2] 23.2 µM | IC50 [4] 55.6 µM

COc1ccc2c(Cl)c(C(=O)N/N=C/c3c(C)[nH]c4ccccc34)sc2c1
active: IC50 [7] 2.04 µM | IC50 [8] 6.57 µM
inactive: IC50 [5] > 66.2 µM | IC50 [6] > 49.8 µM | IC50 [9] 23.2 µM | IC50 [10] > 50 µM

COc1ccc(-c2nc3ccccc3s2)cc1O
active: IC50 [7] 3.25 µM | IC50 [8] 9.38 µM | IC50 [10] 9.41 µM
inactive: IC50 [5] > 66.2 µM | IC50 [6] > 49.8 µM | IC50 [9] 56 µM

CCCCCOc1ccc(Br)cc1/C(C)=N/NC1=NCCN1
active: IC50 [11] 1.6 µM | EC50 [12] 2.99 µM | IC50 [13] 1.26 µM | EC50 [14] 8.5 µM | EC50 [16] 5.8 µM | CC50 [17] 2.09 µM | CC50 [18] 11.3 µM | CC50 [20] 5.08 µM | IC50 [21] 21.4 µM | EC50 [22] 0.647 µM | EC50 [23] 14.8 µM
inactive: IC50 [19] > 20 µM | IC50 [24] 39.9 µM | IC50 [25] 49.8 µM
inconclusive: EC50 [15] 4.48 µM

COc1ccc(C(CCNCc2ccc(OC)c(OC)c2)c2ccc(F)cc2)cc1 (configuration not stated)
active: EC50 [23] 20.9 µM
